PMC7663616, “(5-Hydroxy-4-oxo-2-styryl-4H-pyridin-1-yl)-acetic Acid Derivatives as Multifunctional Aldose Reductase Inhibitors” (Molecules, 2020)
“And” between values parts separate entries of the source, which are not always exact repeats. Equal values may be shown once. Read-outs that look alike come from different tables or passages of the source.

Key:
[1] = system: lipid peroxidation in rat brain homogenate; experiment: Lipid peroxidation suppression (TBARS/MDA) in rat brain homogenate induced by Fe(III)/ascorbic acid; assay type: biochemical; conditions: tested in concentration of 100 μM, n = 3
Text: Lipid peroxidation reactions involve free radical attacks on unsaturated fatty acid, producing free radicals and lipid peroxides which eventually harm the organism and usually decompose to form poisonous malonaldehyde (MDA). Thiobarbituric acid reactive substances (TBARS), which generated from the condensation of thiobarbituric acid and malondialdehyde, are considered as key biomarkers to determine the level of lipid peroxidation. For further identification that the derivatives tested in DPPH scavenging assay can be effective in heterogeneous oxidative pathway, the suppression effect of compounds on the hydroxyl radical-dependent lipoperoxidation in rat brain homogenate oxidant system which induced by Fe(III)/ascorbic acid was also evaluated.
Compounds 7a, 7c, 7g and 7k–l that were already described in the DPPH radical scavenging activity were investigated in the suppression of lipid peroxidation (Table 3).
(§1) Antioxidant assays were performed with the similar protocol as described previously.

[2] = DPPH radical scavenging assay; conditions: n = 3
Protocol: In this part, the antioxidant activity was measured by an intrinsic chemical reactivity toward radicals, in a homogeneous reaction system of the methanol solution of 1,1-diphenyl-2-trinitrophenylhydrazine (DPPH) (0.2 mM), and 6-hydroxy-2,5,7,8-tetramethyl- chroman-2-carboxylic acid (Trolox) served as a reference compound.
as §1

[3] = molecular target: T1, human recombinant ALR1 (Homo sapiens, UniProt P14550); experiment: ALR1 enzyme inhibition assay (NADPH oxidation, sodium D-gluconate substrate); assay type: biochemical; conditions: for inhibition at 100 µM: read-out: ALR1 Inh. %; for SI: selectivity index, defined as IC50[ALR1]: IC50[ALR2]
T1 sequence (P14550 1-325): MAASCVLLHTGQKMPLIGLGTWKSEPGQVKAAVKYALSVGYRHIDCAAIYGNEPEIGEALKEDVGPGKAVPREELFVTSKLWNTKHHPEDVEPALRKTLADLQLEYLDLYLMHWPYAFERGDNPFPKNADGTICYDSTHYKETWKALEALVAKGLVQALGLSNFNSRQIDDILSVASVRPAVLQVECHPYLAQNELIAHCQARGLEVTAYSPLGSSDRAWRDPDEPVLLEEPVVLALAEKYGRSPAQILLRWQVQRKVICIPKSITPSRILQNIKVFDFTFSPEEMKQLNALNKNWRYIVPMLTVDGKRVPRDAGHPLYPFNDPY
Protocol: (§2) All the title compounds were tested for their inhibitory activity against human recombinant ALR2.
The ALR2 inhibition activity was evaluated in a mixture of reaction with 50 μL NADPH (0.1 mM), 50 μL sodium phosphate buffer (pH = 6.2, 100 mM), 50 μL human recombinant ALR2, 1 μL dimethyl sulfoxide (DMSO) as solvent, and 50 μL D,L-glyceraldehyde (10 mM) which served as a substrate. […] Before the substrate was added, the mixture was incubated at 30 °C for 3 min, then the reaction was started when the substrate was added, and was monitored for 4 min. The ALR1 inhibition activity experiment was conducted at 37 °C in the mixture containing 50 μL NADPH (0.12 mM), 50 μL human recombinant ALR1, 50 μL sodium phosphate buffer (pH = 7.2, 100 mM), 50 μL sodium […] (20 mM) as a substrate, and 1 μL DMSO as solvent. Before the substrate sodium […] was added, the mixture was incubated at 37 °C for 3 min, then the substrate was added to start the reaction, which was monitored for 4 min.
(§3) The inhibitory activities of the title synthetic compounds against ALR2 and ALR1 were examined by adding 1 μL of the inhibitor solution to the ALR2 or ALR1 mixtures. All compounds were dissolved in DMSO, and the solutions were diluted with DMSO to desirable concentrations. To correct for the nonenzymatic oxidation of NADPH, the rate of NADPH oxidation in the presence of all of the reaction mixture components except the substrate was subtracted from each experimental rate. The title compounds were tested at concentrations ranging from 100 μM to 1 μM, except compound 7l which were tested 10 μM to 0.1 μM. […] The inhibitory rates of tested compounds were calculated by equation as follows:Inhibitory rate (%) = (1 − ∆Asample/∆AE+DMSO) × 100%(1) sample = enzyme + compound + DMSO(2) E + DMSO = enzyme + DMSO(3)
(§4) The experiments were performed in triplicate.

[4] = molecular target: human recombinant ALR2 (Homo sapiens, UniProt P15121); experiment: ALR2 enzyme inhibition assay (NADPH oxidation, D,L-glyceraldehyde substrate); assay type: biochemical
Protocol: as §2
The ALR2 inhibition activity was evaluated in a mixture of reaction with 50 μL NADPH (0.1 mM), 50 μL sodium phosphate buffer (pH = 6.2, 100 mM), 50 μL human recombinant ALR2, 1 μL dimethyl sulfoxide (DMSO) as solvent, and 50 μL D,L-glyceraldehyde (10 mM) which served as a substrate. […] Before the substrate was added, the mixture was incubated at 30 °C for 3 min, then the reaction was started when the substrate was added, and was monitored for 4 min.
as §3, with “rate.” for “rate. The title compounds were tested at concentrations ranging from 100 μM to 1 μM, except compound 7l which were tested 10 μM to 0.1 μM.”
as §4

[5] = system: lipid peroxidation in rat brain homogenate; design: method as in Chaves S. et al. [37]; conditions: ref Chaves S. et al. [37]; cited from earlier work
[6] = design: method as in Lewis F. W. et al [36]; conditions: 100 μM column; ref Lewis F. W. et al [36]; cited from earlier work
[7] = n = 3, mean ± SD, read-out: IC50 for ALR2
[8] = raw data, single replicate, unit not given (molar scale by log(dose)), read-out: IC50 (ALR2)
[9] = tested in concentration of 100 μM, n = 3
[10] = raw data, average of three replicates, unit not given (molar scale), read-out: IC50 average (ALR2)

Compound	MDA inh. % [1]	% of Inhibition of Control Value (DPPH) ([2]; 100 μM)	IC50 ([3]; n = 3)	IC50 [4, 7]	IC50 [4, 8]	inhibition at 100 µM [3, 9]	IC50 [4, 10]	further results
Cc1c(C)c2c(c(C)c1O)CCC(C)(C(=O)O)O2 (stereo not drawn) [Trolox, 6-hydroxy-2,5,7,8-tetramethyl-chroman-2-carboxylic acid, reference compound]	74.82 ± 1.82%	92.32 ± 0.19%						% of Inhibition of Control Value (DPPH) ([2]; 1 μM): 11.89 ± 1.39%; % of Inhibition of Control Value (DPPH) ([2]; 5 μM): 45.53 ± 1.12%; % of Inhibition of Control Value (DPPH) ([2]; 10 μM): 80.33 ± 1.22%
CC(/C=C1\SC(=S)N(CC(=O)O)C1=O)=C\c1ccccc1 [epalrestat, reference compound]			3.56 ± 0.18 µM					inhibition at 100 µM [3]: 80.8 ± 3.74%
O=C(O)Cn1cc(O)c(=O)cc1C=Cc1ccc(O)cc1 [7k, {5-Hydroxy-2-[2-(4-hydroxy-phenyl)-vinyl]-4-oxo-4H-pyridin-1-yl}-acetic acid]	90.73 ± 3.97%	96.69 ± 0.72%	15 ± 0.54 µM	2.36 ± 0.42 µM	2.63 µM and 1.86 µM and 2.86 µM	75.8 ± 2.34%		% of Inhibition of Control Value (DPPH) ([2]; 1 μM): 33.08 ± 0.72%; % of Inhibition of Control Value (DPPH) ([2]; 5 μM): 72.01 ± 1.80%; % of Inhibition of Control Value (DPPH) ([2]; 10 μM): 89.31 ± 0.62%; SI [3]: 6.36
O=C(O)Cn1cc(O)c(=O)cc1C=Cc1ccc(F)c(F)c1 [7g, {2-[2-(3,4-Difluoro-phenyl)-vinyl]-5-hydroxy-4-oxo-4H-pyridin-1-yl}-acetic acid]	55.02 ± 3.00%	28.50 ± 0.95%	> 100 µM	2.11 ± 0.34 µM	2.52 µM and 2.11 µM and 1.7 µM	35.8 ± 3.23%	2.11 µM	
O=C(O)Cn1cc(O)c(=O)cc1C=Cc1ccc(C(F)(F)F)cc1 [7h, {5-Hydroxy-4-oxo-2-[2-(4-trifluoromethyl-phenyl)-vinyl]-4H-pyridin-1-yl}-acetic acid]				10.7 ± 1.47 µM	8.88 µM and 10.8 µM and 12.5 µM		10.7 µM	
O=C(O)Cn1cc(O)c(=O)cc1C=Cc1ccc(F)cc1 [7f, {2-[2-(4-Fluoro-phenyl)-vinyl]-5-hydroxy-4-oxo-4H-pyridin-1-yl}-acetic acid]				6.64 ± 2.39 µM	4.52 µM and 9.99 µM and 5.42 µM		6.64 µM	
O=C(O)Cn1cc(O)c(=O)cc1C=Cc1ccc(O)c(O)c1 [7l, {2-[2-(3,4-Dihydroxy-phenyl)-vinyl]-5-hydroxy-4-oxo-4H-pyridin-1-yl}-acetic acid]	88.76 ± 2.04%	97.96 ± 0.36%	19.9 ± 1.72 µM	0.789 ± 0.183 µM	0.916 µM and 0.921 µM and 0.53 µM	80 ± 3.59%	0.789 µM	% of Inhibition of Control Value (DPPH) ([2]; 1 μM): 41.48 ± 0.95%; % of Inhibition of Control Value (DPPH) ([2]; 5 μM): 67.18 ± 0.62%; % of Inhibition of Control Value (DPPH) ([2]; 10 μM): 82.44 ± 1.65%; SI [3]: 25.23
Nc1ccc(C=Cc2cc(=O)c(O)cn2CC(=O)O)cc1 [7j, {2-[2-(4-Amino-phenyl)-vinyl]-5-hydroxy-4-oxo-4H-pyridin-1-yl}-acetic acid]				8.19 ± 0.43 µM	8.07 µM and 7.74 µM and 8.76 µM		8.19 µM	
Cc1c(O)c(=O)ccn1C [Deferiprone, 3-hydroxy-1,2-dimethyl-1H-pyridin-4-one]								MDA inh. % [5]: 25%; % of Inhibition of Control Value (DPPH) [6]: 63%
CS(=O)(=O)c1ccc(C=Cc2cc(=O)c(O)cn2CC(=O)O)cc1 [7i, {5-Hydroxy-2-[2-(4-methanesulfonyl-phenyl)-vinyl]-4-oxo-4H-pyridin-1-yl}-acetic acid]				17.1 ± 2.3 µM	16.1 µM and 20.3 µM and 15 µM		17.1 µM	
COc1ccc(C=Cc2cc(=O)c(O)cn2CC(=O)O)cc1OC [7e, {2-[2-(3,4-Dimethoxy-phenyl)-vinyl]-5-hydroxy-4-oxo-4H-pyridin-1-yl}-acetic acid]				9.56 ± 0.98 µM	9.61 µM and 8.33 µM and 10.7 µM		9.56 µM	
Cc1ccc(C=Cc2cc(=O)c(O)cn2CC(=O)O)cc1 [7b, [5-Hydroxy-4-oxo-2-(2-p-tolyl-vinyl)-4H-pyridin-1-yl]-acetic acid]				5.3 ± 0.6 µM	4.48 µM and 5.49 µM and 5.91 µM		5.3 µM	melting point: 256 to 257 °C
COc1ccc(C=Cc2cc(=O)c(O)cn2CC(=O)O)cc1 [7d, {5-Hydroxy-2-[2-(4-methoxy-phenyl)-vinyl]-4-oxo-4H-pyridin-1-yl}-acetic acid]				6.78 ± 0.91 µM	5.7 µM and 7.92 µM and 6.7 µM		6.78 µM	I% (ALR2 inhibitory rate) ([4]; raw data, single replicate, log(dose) -5): 54.7%
O=C(O)Cn1cc(O)c(=O)cc1C=Cc1ccccc1 [7a, (5-Hydroxy-4-oxo-2-styryl-4H-pyridin-1-yl)-acetic acid]	19.28 ± 0.98%	22.90 ± 3.30%	> 100 µM	8.41 ± 0.63 µM	7.85 µM and 8.09 µM and 9.28 µM	38.8 ± 1.75%	8.41 µM	melting point: 254 to 255 °C
CC(C)(C)c1ccc(C=Cc2cc(=O)c(O)cn2CC(=O)O)cc1 [7c, {2-[2-(4-tert-Butyl-phenyl)-vinyl]-5-hydroxy-4-oxo-4H-pyridin-1-yl}-acetic acid]	26.10 ± 1.06%	25.44 ± 2.36%	> 100 µM	2.98 ± 0.73 µM	2.06 µM and 3.03 µM and 3.84 µM	49.41 ± 0.45%	2.98 µM	
